Usually EC50 stands for the concentration at which the effect is half-maximal.

This assay concerns the target T1, LXRβ (Homo sapiens, UniProt P55055).
T1 construct: Co-transfection expression plasmids, comprising full-length LXRα (pCMX-h LXRα or LXRβ (pCMX-hLXRβ)); expressed in transfected cells; host or cells: CV-1 African green monkey kidney cells, transient transfection with pCMX-hLXRβ
T1 sequence (P55055 1-460): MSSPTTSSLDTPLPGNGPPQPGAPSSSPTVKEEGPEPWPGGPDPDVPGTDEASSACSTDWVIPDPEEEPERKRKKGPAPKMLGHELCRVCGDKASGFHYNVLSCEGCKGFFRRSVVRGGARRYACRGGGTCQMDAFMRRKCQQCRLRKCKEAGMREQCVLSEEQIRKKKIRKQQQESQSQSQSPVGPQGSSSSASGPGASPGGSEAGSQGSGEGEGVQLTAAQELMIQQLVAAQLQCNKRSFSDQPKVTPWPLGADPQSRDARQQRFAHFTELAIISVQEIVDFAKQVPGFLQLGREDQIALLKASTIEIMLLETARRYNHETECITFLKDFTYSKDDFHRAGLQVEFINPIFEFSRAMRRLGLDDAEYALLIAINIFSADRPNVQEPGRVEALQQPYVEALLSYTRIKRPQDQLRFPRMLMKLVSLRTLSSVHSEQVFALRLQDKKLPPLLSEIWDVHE
T1 sequence (P19793 1-462 partner): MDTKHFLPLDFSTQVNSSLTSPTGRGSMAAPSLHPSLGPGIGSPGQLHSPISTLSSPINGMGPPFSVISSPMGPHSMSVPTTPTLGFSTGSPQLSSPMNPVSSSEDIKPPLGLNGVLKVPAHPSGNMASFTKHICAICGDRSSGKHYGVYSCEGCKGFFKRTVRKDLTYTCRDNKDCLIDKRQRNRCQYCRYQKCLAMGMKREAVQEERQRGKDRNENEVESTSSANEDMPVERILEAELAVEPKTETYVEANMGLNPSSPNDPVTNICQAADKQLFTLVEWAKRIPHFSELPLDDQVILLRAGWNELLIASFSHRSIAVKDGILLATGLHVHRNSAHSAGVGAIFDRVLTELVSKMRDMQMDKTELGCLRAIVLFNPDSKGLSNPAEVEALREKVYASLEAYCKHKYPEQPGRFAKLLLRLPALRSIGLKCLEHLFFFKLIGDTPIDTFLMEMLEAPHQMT
The assay can be described thus: LXR/LXRE co-transfection assay (luciferase reporter) in CV-1 cells, LXRβ. It counts as cell-based. The settings on record: for EC50: CV-1 cells transfected with pCMX-hLXRβ and LXREx1-Tk-Luciferase, 20 hours incubation, read-out: LXRbeta agonism EC50; for Emax: CV-1 cells, relative to maximum response of high control N-(3-((4-fluorophenyl)-(naphthalene-2-sulfonyl)amino)propyl)-2,2-dimethylpropionamide, read-out: LXRbeta % EFFICACY
In short, it runs like this: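 CV-1 cells transiently co-transfected with full-length human LXRβ, LXRE-Tk-luciferase reporter and β-galactosidase control, then exposed to compound (≤0.5% DMSO) for 20 h at 37 °C before luminescence read. EC50 from 10-point, half-log dose curves; efficacy relative to the sulfonamide high control, means of 2–3 experiments.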
In general terms: In a reporter assay the amount or activity of a reporter protein is the signal.

As to `CS(=O)(=O)c1cccc(-c2ccc(-n3ccc(C(N)=O)n3)c(-c3oc(C4CC4)nc3-c3ccc(OC(F)(F)F)cc3)c2)c1` [Example 361, 1-(3-(2-cyclopropyl-4-(4-(trifluoromethoxy)phenyl)oxazol-5-yl)-3′-(methylsulfonyl)-[1,1′-biphenyl]-4-yl)-1H-pyrazole-3-carboxamide], the EC50 stood at 652 nM and the Emax stood at 12%.
The corresponding values for `Cc1nc(-c2ccc3c(c2)OC(F)(F)O3)c(-c2cc(-c3cccc(S(C)(=O)=O)c3)ccc2-n2ccc(C#N)n2)o1` [Example 362, 1-(3-(4-(2,2-difluorobenzo[d][1,3]dioxol-5-yl)-2-methyloxazol-5-yl)-3′-(methylsulfonyl)-[1,1′-biphenyl]-4-yl)-1H-pyrazole-3-carbonitrile] are 64 nM and 22%.
For `Cc1nc(-c2ccc3c(c2)OC(F)(F)O3)c(-c2cc(-c3cccc(S(C)(=O)=O)c3)ccc2-n2ccc(CO)n2)o1` [Example 363, (1-(3-(4-(2,2-difluorobenzo[d][1,3]dioxol-5-yl)-2-methyloxazol-5-yl)-3′-(methylsulfonyl)-[1,1′-biphenyl]-4-yl)-1H-pyrazol-3-yl)methanol] the same measures were 1520 nM and 22%.
As to `Cc1nc(-c2ccc3c(c2)OC(F)(F)O3)c(-c2cc(-c3cccc(C(C)(C)C(N)=O)c3)ccc2-n2ccc(C(N)=O)n2)o1` [Example 364, 1-(3′-(1-amino-2-methyl-1-oxopropan-2-yl)-3-(4-(2,2-difluorobenzo[d][1,3]dioxol-5-yl)-2-methyloxazol-5-yl)-[1,1′-biphenyl]-4-yl)-1H-pyrazole-3-carboxamide], the EC50 was found to be 950 nM and the Emax was 18%.
For `Cc1nc(-c2ccc(OC(F)(F)F)cc2)c(-c2cc(-c3cccc(C(C)(C)C(N)=O)c3)ccc2-n2ccc(CC#N)n2)o1` [Example 365, 2-(4′-(3-(cyanomethyl)-1H-pyrazol-1-yl)-3′-(2-methyl-4-(4-(trifluoromethoxy)phenyl)oxazol-5-yl)-[1,1′-biphenyl]-3-yl)-2-methylpropanamide] the same measures were 424 nM and 76%.
For `Cc1nc(-c2ccc(OC(F)(F)F)cc2)c(-c2cc(-c3cccc(C(C)(C)C(N)=O)c3)ccc2-n2ccc(C(=O)NCC(F)(F)F)n2)o1` [Example 366] the same measures were 293 nM and 28%.
On to `Cc1nc(-c2ccc(OC(F)(F)F)cc2)c(-c2cc(-c3cccc(S(C)(=O)=O)c3)ccc2-n2ccc(CC#N)n2)o1` [Example 369, 2-(1-(3-(2-methyl-4-(4-(trifluoromethoxy)phenyl)oxazol-5-yl)-3′-(methylsulfonyl)-[1,1′-biphenyl]-4-yl)-1H-pyrazol-3-yl)acetonitrile], for which the EC50 was found to be 226 nM and the Emax was determined as 99%.
For `Cc1nc(-c2ccc(OC(F)(F)F)cc2)c(-c2cc(-c3cc(F)c(CO)c(S(C)(=O)=O)c3)ccc2-n2ccc(CC#N)n2)o1` [Example 370] the same measures were 125 nM and 86%.
For `Cc1nc(-c2ccc(OC(F)(F)F)cc2)c(-c2cc(-c3cccc(S(C)(=O)=O)c3)ccc2-n2ccc(C(=O)NCC(F)(F)F)n2)o1` [Example 371, 1-(3-(2-methyl-4-(4-(trifluoromethoxy)phenyl)oxazol-5-yl)-3′-(methylsulfonyl)-[1,1′-biphenyl]-4-yl)-N-(2,2,2-trifluoroethyl)-1H-pyrazole-3-carboxamide] the same measures were 119 nM and 33%.
Take `Cc1nc(-c2ccc(OC(F)(F)F)cc2)c(-c2cc(-c3cc(F)c(CO)c(S(C)(=O)=O)c3)ccc2-n2ccc(C(=O)NCC(F)(F)F)n2)o1` [Example 372]: the EC50 is 123 nM and the Emax was 38%.
Regarding `Cc1nc(-c2ccc(OC(F)(F)F)cc2)c(-c2cc(-c3cccc(S(C)(=O)=O)c3)ccc2-n2ccc(C(C)(C)C#N)n2)o1` [Example 373], the EC50 was determined as 92 nM and the Emax stood at 22%.
For `Cc1nc(-c2ccc(OC(F)(F)F)cc2)c(-c2cc(-c3cccc(S(C)(=O)=O)c3)ccc2-n2ccc(COC(N)=O)n2)o1` [Example 374, (1-(3-(2-methyl-4-(4-(trifluoromethoxy)phenyl)oxazol-5-yl)-3′-(methylsulfonyl)-[1,1′-biphenyl]-4-yl)-1H-pyrazol-3-yl) methyl carbamate] the same measures were 421 nM and 47%.
For `Cc1nc(-c2ccc(OC(F)(F)F)cc2)c(-c2cc(-c3cc(F)c(CO)c(S(C)(=O)=O)c3)ccc2-n2ccc(COC(N)=O)n2)o1` [Example 375, (1-(3′-fluoro-4′-(hydroxymethyl)-3-(2-methyl-4-(4-(trifluoromethoxy)phenyl)oxazol-5-yl)-5′-(methylsulfonyl)-[1,1′-biphenyl]-4-yl)-1H-pyrazol-3-yl) methyl carbamate] the same measures were 198 nM and 62%.
The corresponding values for `Cc1nc(-c2ccc(OC(F)(F)F)cc2)c(-c2cc(-c3cccc(C(C)(C)C(N)=O)c3)ccc2-n2ccc(COC(N)=O)n2)o1` [Example 376, (1-(3′-(1-amino-2-methyl-1-oxopropan-2-yl)-3-(2-methyl-4-(4-(trifluoromethoxy)phenyl)oxazol-5-yl)-[1,1′-biphenyl]-4-yl)-1H-pyrazol-3-yl)methyl carbamate] are 1300 nM and 53%.
In the case of `Cc1nc(-c2ccc(OC(F)(F)F)cc2)c(-c2cc(-c3cc(F)c(CO)c(S(C)(=O)=O)c3)ccc2-n2ccc(C(C)(C)C#N)n2)o1` [Example 377, 2-(1-(3′-fluoro-4′-(hydroxymethyl)-3-(2-methyl-4-(4-(trifluoromethoxy)phenyl)oxazol-5-yl)-5′-(methylsulfonyl)-[1,1′-biphenyl]-4-yl)-1H-pyrazol-3-yl)-2-methylpropanenitrile], the EC50 was found to be 28 nM and the Emax was 23%.
Regarding `Cc1nc(-c2ccc(OC(F)(F)F)cc2)c(-c2cc(-c3ccc(CO)c(S(C)(=O)=O)c3)ccc2-n2ccc(C(C)(C)C#N)n2)o1` [Example 378, 2-(1-(4′-(hydroxymethyl)-3-(2-methyl-4-(4-(trifluoromethoxy)phenyl)oxazol-5-yl)-3-(methylsulfonyl)-[1,1′-biphenyl]-4-yl)-1H-pyrazol-3-yl)-2-methylpropanenitrile], the EC50 was determined as 15 nM and the Emax was found to be 29%.
On to `Cc1nc(-c2ccc(OC(F)(F)F)cc2)c(-c2cc(-c3cc(F)c(CO)c(S(C)(=O)=O)c3)ccc2-n2cc(Cl)c(C(F)(F)F)n2)o1` [Example 379, (4′-(4-chloro-3-(trifluoromethyl)-1H-pyrazol-1-yl)-3-fluoro-3′-(2-methyl-4-(4-(trifluoromethoxy)phenyl)oxazol-5-yl)-5-(methylsulfonyl)-[1,1′-biphenyl]-4-yl)methanol], for which the EC50 was 27 nM and the Emax was 86%.
The corresponding values for `Cc1nc(-c2ccc(OC(F)(F)F)cc2)c(-c2cc(-c3cccc(S(C)(=O)=O)c3)ccc2-n2cc(Cl)c(C(F)(F)F)n2)o1` [Example 380, 5-(4-(4-chloro-3-(trifluoromethyl)-1H-pyrazol-1-yl)-3′-(methylsulfonyl)-[1,1′-biphenyl]-3-yl)-2-methyl-4-(4-(trifluoromethoxy)phenyl) oxazole] are 465 nM and 29%.
Turning to `Cc1nc(-c2ccc(OC(F)(F)F)cc2)c(-c2cc(-c3cccc(C4(C(N)=O)CC4)c3)ccc2-n2nc(C(F)(F)F)cc2Cl)o1` [Example 381, 1-(4′-(5-chloro-3-(trifluoromethyl)-1H-pyrazol-1-yl)-3′-(2-methyl-4-(4-(trifluoromethoxy)phenyl)oxazol-5-yl)-[1,1′-biphenyl]-3-yl) cyclopropanecarboxamide], the EC50 is 1080 nM and the Emax amounted to 61%.
For `CCOc1cc(C(F)(F)F)nn1-c1ccc(-c2cc(F)c(CO)c(S(C)(=O)=O)c2)cc1-c1nc(C)oc1-c1ccc(OC(F)(F)F)cc1` [Example 382, (4′-(5-ethoxy-3-(trifluoromethyl)-1H-pyrazol-1-yl)-3-fluoro-3′-(2-methyl-5-(4-(trifluoromethoxy)phenyl)oxazol-4-yl)-5-(methylsulfonyl)biphenyl-4-yl)methanol] the same measures were 629 nM and 50%.

The record behind these values is patent US9751869B2, “LXR modulators” (BRISTOL-MYERS SQUIBB COMPANY, priority 2013, dated 2017).
